Assays:
hypoxemia model animals [1] = test: Effect on partial pressure of gases in arterial blood, injection system, Method B (acetic acid-induced hypoxemia); type: in vivo, Male Wister strain rats; details: 2.0% acetic acid intratracheal 0.6 ml/kg, PaO2 60-70 mmHg, intravenous continuous 0.1 mg/kg/min, after minus before administration
Experimental: (§1) Example 59: Effect on Partial Pressure Value of Gases in Arterial Blood (Injection system)
Male Wister strain rats (body about 300 g) were anesthetized with halothane inhalant, and then 2.0% acetic acid was intratrachealy injected at 0.6 ml/kg to induce a respiratory insufficiency. The animals were intra-peritoneally anesthetized with urethane-α-chloralose, and a cannula was inserted into the femoral artery. After the hypoxemic state (PaO2: 60-70 mmHg) was observed a compound in accordance with the present invention (test substance) was intravenously injected into these hypoxemia model animals by a continuous manner (0.1 mg/kg/min), and then a partial pressure value of gases (PaO2, PaCO2) in arterial blood were immediately determined.

hypoxemia state = test: Effect on partial pressure of gases in arterial blood, oral administration system (acetic acid-induced hypoxemia); type: in vivo, Male Wistar strain rats; details: orally administered; 2.0% acetic acid intratracheal 0.8 ml/kg; 60 min. after the administration
Experimental: Example 60: Effect on Partial Pressure Value of Gases in Arterial Blood (Oral Administration System)
Male Wistar strain rats (body weight about 250 g) fasted overnight were anesthetized with halothane inhalant, and then a cannula was inserted into the femoral artery. After the animals recovered from the anesthesia, they were again anesthetized with halothane inhalant, and then 2.0% acetic acid was intratrachealy injected at 0.8 ml/kg to induce a hypoxemia state. After the hypoxemic state was observed over about 60 min., a compound in accordance with the present invention (test substance) was orally administered to the animals. On 60 min. after the administration, the partial pressure value of gases (PaO2, PaCO2) in arterial blood were determined.

hypoxemia model animals [2] = test: Effect on partial pressure of gases in arterial blood, injection system, Method A (carbon powder-induced hypoxemia); type: in vivo, Male Wister strain rats; details: carbon powder intratracheal, PaO2 50-60 mmHg, intravenous continuous 0.1 mg/kg/min., 10 min, after minus before administration
Experimental: as §1
Male Wister strain rats (body weight about 300 g) were anesthetized intra-peritoneally with urethane, and a cannula was inserted into the respiratory tract and the femoral artery, respectively. A suspension (30-100 µm, 10 mg/ml) of carbon powder in a corn oil was intratrachealy injected to induce a hypoxemia state (PaO2; 50-60 mmHg). A compound in accordance with the present invention was intravenously injected into these hypoxemia model animals by a continuous manner (0.1 mg/kg/min., 10 min), and then a partial pressure value of gases (PaO2, PaCO2) in arterial blood were immediately determined.

Structure (SMILES)	Activity for Decreasing PaCO2 ΔPaCO2 (hypoxemia model animals [1])	Activity for Increasing PaO2 ΔPaO2 (hypoxemia model animals [1])	Activity for Decreasing PaCO2 ΔPaCO2 (hypoxemia state)	Activity for Increasing PaO2 ΔPaO2 (hypoxemia state)	Activity for Decreasing PaCO2 ΔPaCO2 (hypoxemia model animals [2])	Activity for Increasing PaO2 ΔPaO2 (hypoxemia model animals [2])
C=CCNc1nc(NCCc2ccccc2)c2ccn(C)c2n1 [Compound 164]	-19.2 mmHg	+15.4 mmHg				
C=CCNc1nc(NC(C)c2ccccc2)c2ccn(C)c2n1 (racemic) [Compound 156, (±)-2-allylamino-7-methyl-4-(1-phenylethyl-amino)-7H-pyrrolo[2,3-d]pyrimidine]	-9.1 mmHg	+19.7 mmHg	+ (+: -3 - -6 mmHg)	+ +		
C=CCNc1nc(N2CCOCC2)c2ccn(C)c2n1 [Compound 124]	-4.0 mmHg	+5.7 mmHg	+ (+: -3 - -6 mmHg)	+ (ΔPaO2 +: +3 - +6 mmHg)		
C=CCNc1nc(N2CCC(OC(C)=O)CC2)c2ccn(C)c2n1 [Compound 119]					-2.6 mmHg	+7.1 mmHg
C=CCNc1nc(NC2CCCc3ccccc32)c2ccn(C)c2n1 (centres unmarked) [Compound 162]	-17.2 mmHg	+18.1 mmHg				
C=CCNc1nc(N(C)C)c2ccn(C)c2n1 [Compound 165]	+1.1 mmHg	+7.9 mmHg	± (ΔPaCO2 ±: 0 - -3 mmHg)	+ (ΔPaO2 +: +3 - +6 mmHg)		
C=CCNc1nc(N2CCN(C(c3ccc(F)cc3)c3ccc(F)cc3)CC2)c2ccn(C)c2n1 [Compound 133]					-0.6 mmHg	+6.9 mmHg
C=CCNc1nc(N(C)CCc2ccccc2)c2ccn(C)c2n1 [Compound 167]	-6.6 mmHg	+11.3 mmHg				
C=CCNc1nc(NC2CCCCC2)c2ccn(C)c2n1 [Compound 150]	-18.6 mmHg	+18.4 mmHg				
C=CCNc1nc(N2CCN(C(c3ccc(F)cc3)c3ccc(F)cc3)CC2)c2ccn(CC=C)c2n1 [Compound 143]					+1.1 mmHg	+5.0 mmHg
